The source of these data is PMC3124791 (2011).

Molecules are shown by their SMILES.

A word on the IC50: it is the concentration that inhibits the measured activity by half.

The target of the assay is BACE-1 (β-secretase) (Homo sapiens, UniProt P56817). Description: cell-free chemoluminescent BACE-1 activity assay. It is filed as biochemical.
BACE-1 (β-secretase), sequence (P56817 46-457): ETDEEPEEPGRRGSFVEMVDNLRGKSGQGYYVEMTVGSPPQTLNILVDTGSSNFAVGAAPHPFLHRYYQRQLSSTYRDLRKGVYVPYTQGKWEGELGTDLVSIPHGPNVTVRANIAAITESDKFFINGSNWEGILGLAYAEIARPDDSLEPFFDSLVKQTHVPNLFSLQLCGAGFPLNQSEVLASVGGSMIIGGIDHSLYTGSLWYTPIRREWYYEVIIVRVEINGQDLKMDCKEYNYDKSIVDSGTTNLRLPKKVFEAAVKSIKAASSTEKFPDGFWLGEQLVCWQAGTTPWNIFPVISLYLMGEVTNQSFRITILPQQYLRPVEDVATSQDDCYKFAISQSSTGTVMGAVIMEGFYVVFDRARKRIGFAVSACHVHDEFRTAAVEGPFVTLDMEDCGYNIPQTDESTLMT

In turn, `O=c1cc(-c2ccc(O)cc2)oc2cc(O)cc(O)c12` [apigenin, 4',5,7-Trihydroxyflavone] returned an IC50 of 34.2 µM. Take `O=c1c(O)c(-c2ccc(O)cc2)oc2cc(O)cc(O)c12` [kaempferol, 3,5,7-Trihydroxy-2-(4-hydroxyphenyl)-4H-1-benzopyran-4-one]: 27.7 µM corresponded to half-maximal inhibition (IC50).
